Assay results from PubChem BioAssay (NCI).
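A five-concentration, 48-hour dose response in 96-well plates underlies each endpoint, interpolated linearly between surrounding concentrations. GI50 is the concentration that inhibits growth by half. Definition used: TGI = concentration required for complete inhibition of growth.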

Experiments:
Assay in all cases: growth of human tumour cells (NCI), 48 h
786-0 renal = test system: 786-0 renal
A498 renal = test system: A498 renal
A549 NSCLC = test system: A549 NSCLC
ACHN renal = test system: ACHN renal
BT-549 breast = test system: BT-549 breast
CAKI-1 renal = test system: CAKI-1 renal
CCRF-CEM leukemia = test system: CCRF-CEM leukemia
COLO 205 colon = test system: COLO 205 colon
DU-145 prostate = test system: DU-145 prostate
EKVX NSCLC = test system: EKVX NSCLC
HCC-2998 colon = test system: HCC-2998 colon
HCT-116 colon = test system: HCT-116 colon
HCT-15 colon = test system: HCT-15 colon
HL-60(TB) leukemia = test system: HL-60(TB) leukemia
HOP-62 NSCLC = test system: HOP-62 NSCLC
HOP-92 NSCLC = test system: HOP-92 NSCLC
HS 578T breast = test system: HS 578T breast
HT29 colon = test system: HT29 colon
IGROV1 ovarian = test system: IGROV1 ovarian
K-562 leukemia = test system: K-562 leukemia
KM12 colon = test system: KM12 colon
LOX IMVI melanoma = test system: LOX IMVI melanoma
M14 melanoma = test system: M14 melanoma
MALME-3M melanoma = test system: MALME-3M melanoma
MCF7 breast = test system: MCF7 breast
MDA-MB-231 breast = test system: MDA-MB-231 breast
MDA-MB-435 = test system: MDA-MB-435
MOLT-4 leukemia = test system: MOLT-4 leukemia
NCI-H226 lung = test system: NCI-H226 lung
NCI-H23 lung = test system: NCI-H23 lung
NCI-H460 lung = test system: NCI-H460 lung
NCI-H522 lung = test system: NCI-H522 lung
NCI/ADR-RES ovarian = test system: NCI/ADR-RES ovarian
OVCAR-3 ovarian = test system: OVCAR-3 ovarian
OVCAR-4 ovarian = test system: OVCAR-4 ovarian
OVCAR-5 ovarian = test system: OVCAR-5 ovarian
OVCAR-8 ovarian = test system: OVCAR-8 ovarian
PC-3 prostate = test system: PC-3 prostate
RPMI-8226 leukemia = test system: RPMI-8226 leukemia
RXF 393 renal = test system: RXF 393 renal
SF-268 CNS = test system: SF-268 CNS
SF-295 CNS = test system: SF-295 CNS
SF-539 CNS = test system: SF-539 CNS
SK-MEL-2 melanoma = test system: SK-MEL-2 melanoma
SK-MEL-28 melanoma = test system: SK-MEL-28 melanoma
SK-MEL-5 melanoma = test system: SK-MEL-5 melanoma
SK-OV-3 ovarian = test system: SK-OV-3 ovarian
SN12C renal = test system: SN12C renal
SNB-19 CNS = test system: SNB-19 CNS
SNB-75 CNS = test system: SNB-75 CNS
SW-620 colon = test system: SW-620 colon
T-47D breast = test system: T-47D breast
TK-10 renal = test system: TK-10 renal
U251 CNS = test system: U251 CNS
UACC-257 melanoma = test system: UACC-257 melanoma
UACC-62 melanoma = test system: UACC-62 melanoma
UO-31 renal = test system: UO-31 renal

With `Clc1ccc(-c2nc(-c3c[nH]c4ncccc34)cs2)cc1` the GI50 (786-0 renal) was over 100 µM, the TGI (786-0 renal) was over 100 µM and the GI50 (A498 renal) was over 100 µM. The TGI (A498 renal) was over 100 µM, the GI50 (A549 NSCLC) was over 100 µM and the TGI (A549 NSCLC) was over 100 µM. The GI50 (ACHN renal) was over 100 µM, the TGI (ACHN renal) was over 100 µM and the GI50 (BT-549 breast) was over 100 µM. It also gave a TGI (BT-549 breast) of over 100 µM, a GI50 (CAKI-1 renal) of over 100 µM and a TGI (CAKI-1 renal) of over 100 µM. It also gave a GI50 (CCRF-CEM leukemia) of over 100 µM, a TGI (CCRF-CEM leukemia) of over 100 µM and a GI50 (COLO 205 colon) of over 100 µM. The TGI (COLO 205 colon) was over 100 µM, the GI50 (DU-145 prostate) was over 100 µM and the TGI (DU-145 prostate) was over 100 µM. For the same molecule, the GI50 (EKVX NSCLC) was 0.582 µM, the TGI (EKVX NSCLC) was over 100 µM and the GI50 (HCC-2998 colon) was over 100 µM. For the same molecule, the TGI (HCC-2998 colon) was over 100 µM, the GI50 (HCT-116 colon) was 52.9 µM and the TGI (HCT-116 colon) was over 100 µM. The GI50 (HCT-15 colon) was over 100 µM, the TGI (HCT-15 colon) was over 100 µM and the GI50 (HL-60(TB) leukemia) was over 100 µM. It also gave a TGI (HL-60(TB) leukemia) of over 100 µM, a GI50 (HOP-62 NSCLC) of over 100 µM and a TGI (HOP-62 NSCLC) of over 100 µM. It also gave a GI50 (HOP-92 NSCLC) of 0.0277 µM, a TGI (HOP-92 NSCLC) of over 100 µM and a GI50 (HS 578T breast) of over 100 µM. For the same molecule, the TGI (HS 578T breast) was over 100 µM, the GI50 (HT29 colon) was over 100 µM and the TGI (HT29 colon) was over 100 µM. For the same molecule, the GI50 (IGROV1 ovarian) was 4.78 µM, the TGI (IGROV1 ovarian) was over 100 µM and the GI50 (K-562 leukemia) was over 100 µM. For the same molecule, the TGI (K-562 leukemia) was over 100 µM, the GI50 (KM12 colon) was over 100 µM and the TGI (KM12 colon) was over 100 µM. The GI50 (LOX IMVI melanoma) was over 100 µM, the TGI (LOX IMVI melanoma) was over 100 µM and the GI50 (M14 melanoma) was over 100 µM. The TGI (M14 melanoma) was over 100 µM, the GI50 (MALME-3M melanoma) was over 100 µM and the TGI (MALME-3M melanoma) was over 100 µM. The GI50 (MCF7 breast) was over 100 µM, the TGI (MCF7 breast) was over 100 µM and the GI50 (MDA-MB-231 breast) was over 100 µM. It also gave a TGI (MDA-MB-231 breast) of over 100 µM, a GI50 (MDA-MB-435) of over 100 µM and a TGI (MDA-MB-435) of over 100 µM. For the same molecule, the GI50 (MOLT-4 leukemia) was over 100 µM, the TGI (MOLT-4 leukemia) was over 100 µM and the GI50 (NCI-H226 lung) was over 100 µM. It also gave a TGI (NCI-H226 lung) of over 100 µM, a GI50 (NCI-H23 lung) of 97.7 µM and a TGI (NCI-H23 lung) of over 100 µM. It also gave a GI50 (NCI-H460 lung) of over 100 µM, a TGI (NCI-H460 lung) of over 100 µM and a GI50 (NCI-H522 lung) of over 100 µM. It also gave a TGI (NCI-H522 lung) of over 100 µM, a GI50 (NCI/ADR-RES ovarian) of over 100 µM and a TGI (NCI/ADR-RES ovarian) of over 100 µM. The GI50 (OVCAR-3 ovarian) was over 100 µM, the TGI (OVCAR-3 ovarian) was over 100 µM and the GI50 (OVCAR-4 ovarian) was 65.8 µM. It also gave a TGI (OVCAR-4 ovarian) of over 100 µM, a GI50 (OVCAR-5 ovarian) of over 100 µM and a TGI (OVCAR-5 ovarian) of over 100 µM. For the same molecule, the GI50 (OVCAR-8 ovarian) was over 100 µM, the TGI (OVCAR-8 ovarian) was over 100 µM and the GI50 (PC-3 prostate) was over 100 µM. For the same molecule, the TGI (PC-3 prostate) was over 100 µM, the GI50 (RPMI-8226 leukemia) was over 100 µM and the TGI (RPMI-8226 leukemia) was over 100 µM. The GI50 (RXF 393 renal) was over 100 µM, the TGI (RXF 393 renal) was over 100 µM and the GI50 (SF-268 CNS) was over 100 µM. The TGI (SF-268 CNS) was over 100 µM, the GI50 (SF-295 CNS) was over 100 µM and the TGI (SF-295 CNS) was over 100 µM. For the same molecule, the GI50 (SF-539 CNS) was 35.7 µM, the TGI (SF-539 CNS) was over 100 µM and the GI50 (SK-MEL-2 melanoma) was over 100 µM. The TGI (SK-MEL-2 melanoma) was over 100 µM, the GI50 (SK-MEL-28 melanoma) was over 100 µM and the TGI (SK-MEL-28 melanoma) was over 100 µM. For the same molecule, the GI50 (SK-MEL-5 melanoma) was over 100 µM, the TGI (SK-MEL-5 melanoma) was over 100 µM and the GI50 (SK-OV-3 ovarian) was over 100 µM. It also gave a TGI (SK-OV-3 ovarian) of over 100 µM, a GI50 (SN12C renal) of over 100 µM and a TGI (SN12C renal) of over 100 µM. It also gave a GI50 (SNB-19 CNS) of over 100 µM, a TGI (SNB-19 CNS) of over 100 µM and a GI50 (SNB-75 CNS) of over 100 µM. For the same molecule, the TGI (SNB-75 CNS) was over 100 µM, the GI50 (SW-620 colon) was 36.3 µM and the TGI (SW-620 colon) was over 100 µM. For the same molecule, the GI50 (T-47D breast) was 9.41 µM, the TGI (T-47D breast) was over 100 µM and the GI50 (TK-10 renal) was over 100 µM. For the same molecule, the TGI (TK-10 renal) was over 100 µM, the GI50 (U251 CNS) was over 100 µM and the TGI (U251 CNS) was over 100 µM. It also gave a GI50 (UACC-257 melanoma) of over 100 µM, a TGI (UACC-257 melanoma) of over 100 µM and a GI50 (UACC-62 melanoma) of over 100 µM. The TGI (UACC-62 melanoma) was over 100 µM, the GI50 (UO-31 renal) was over 100 µM and the TGI (UO-31 renal) was over 100 µM.
